# Reference: BindingDB's records for doi:10.1021/jm970615f (Parke-Davis Pharmaceutical Research, 1997)
# Molecular target: T1, Dimer of Gag-Pol polyprotein [489-587] (Human immunodeficiency virus 1, UniProt P12497)
# T1 construct: 489-587
# Test: Protease Inhibition Assay
# Conditions: not given
# Experimental: For determination of IC50 values, HIV-1 protease was added to assay buffer containing inhibitor and the substrate (H-His-Lys-Ala-Arg-Val-Leu- (p-NO2) Phe-Glu-Ala-norleucine-Ser-NH2). The Leu- (p-NO2) Phe bond of the substrate was cleaved by the enzyme, and the substrate and products were separated by reversed-phase HPLC. Absorbance was measured at 220 nm, peak areas were determined, and percentage conversion to product was calculated.
row,SMILES,IC50 [nM]
1,"O=C1CC2(CCCc3ccccc32)OC(=O)C1SCCc1ccccc1 (configuration not stated) [3,4-Dihydro-4-hydroxy-5-[(2-phenylethyl)thio]-spiro[naphthalene-1(2H),2-[2H]pyran]-6 (3 H)-one]",1300
2,"O=C1CC2(CCCc3ccccc32)OC(=O)C1SCc1ccccc1 (configuration not stated) [3,4-Dihydro-4-hydroxy-5-[(phenylmethyl)thio]spiro[naphthalene-1(2H),2-[2H]pyran]-6 (3 H)-one]",2300
3,"CCCCCC1(CCCCC)CC(=O)C(SCc2ccccc2)C(=O)O1 (configuration not stated) [3-(Benzylsulfanyl)-4-hydroxy-6,6-dipentyl-5,6-dihydro-pyran-2-one]",327
4,"O=C1CC(CCCCO)(c2ccccc2)OC(=O)C1SCc1ccccc1 (configuration not stated) [3-(benzylsulfanyl)-4-hydroxy-6-(4-hydroxybutyl)-6-phenyl-5,6-dihydro-2H-pyran-2-one]",1260
5,"O=C1CC(c2ccccc2)(c2ccccc2)OC(=O)C1Sc1ccccc1C1CCCCC1 (configuration not stated) [3-[(2-Cyclohexylphenyl)sulfanyl]-5,6-dihydro-4-hydroxy-6,6-diphenyl-2H-pyran-2-one]",127
6,"O=C1CC(CCc2ccccc2)(c2ccccc2)OC(=O)C1Sc1ccccc1C1CCCCC1 (configuration not stated) [3-[(2-cyclohexylphenyl)sulfanyl]-4-hydroxy-6-phenyl-6-(2-phenylethyl)-5,6-dihydro-2H-pyran-2-one]",32
7,"O=C1CC(c2ccccc2)(c2ccccc2)OC(=O)C1Sc1ccccc1C1CCCC1 (configuration not stated) [3-[(2-cyclopentylphenyl)sulfanyl]-4-hydroxy-6,6-diphenyl-5,6-dihydro-2H-pyran-2-one]",14
8,"CCC(C)c1ccccc1SC1C(=O)CC(c2ccccc2)(c2ccccc2)OC1=O (configuration not stated) [3-[(2-sec-Butylphenyl)sulfanyl]-5,6-dihydro-4-hydroxy-6,6-diphenyl-2H-pyran-2-one]",17
9,"CC(C)c1ccc(C(C)(C)C)c(SC2C(=O)CC(CCc3ccccc3)(c3ccccc3)OC2=O)c1 (configuration not stated) [3-[(2-tert-Butyl-5-isopropylphenyl)sulfanyl]-5,6-dihydro-4-hydroxy-6-phenyl-6-(2-phenylethyl)-2H-pyran-2-one]",47
10,"CC(C)(C)c1ccccc1SC1C(=O)CC(c2ccccc2)(c2ccccc2)OC1=O (configuration not stated) [3-[(2-tert-Butylphenyl)sulfanyl]-5,6-dihydro-4-hydroxy-6,6-diphenyl-2H-pyran-2-one]",49
11,"Cc1ccc(C(C)(C)C)c(SC2C(=O)CC(c3ccccc3)(c3ccccc3)OC2=O)c1 (configuration not stated) [3-[(2-tert-butyl-5-methylphenyl)sulfanyl]-4-hydroxy-6,6-diphenyl-5,6-dihydro-2H-pyran-2-one]",12
12,"CC(C)(C)c1ccccc1SC1C(=O)CC(CCc2ccccc2)(c2ccccc2)OC1=O (configuration not stated) [3-[(2-tert-butylphenyl)sulfanyl]-4-hydroxy-6-phenyl-6-(2-phenylethyl)-5,6-dihydro-2H-pyran-2-one]",3
13,"CC(C)c1ccc(C(C)C)c(SC2C(=O)CC(c3ccccc3)(c3ccccc3)OC2=O)c1 (configuration not stated) [3-{[2,5-bis(propan-2-yl)phenyl]sulfanyl}-4-hydroxy-6,6-diphenyl-5,6-dihydro-2H-pyran-2-one]",119
14,"CCC(C)c1ccccc1SC1C(=O)CC(CCc2ccccc2)(c2ccccc2)OC1=O (configuration not stated) [3-{[2-(butan-2-yl)phenyl]sulfanyl}-4-hydroxy-6-phenyl-6-(2-phenylethyl)-5,6-dihydro-2H-pyran-2-one]",10
15,"Cc1ccc(C(C)(C)C)c(SC2C(=O)CC(CCc3ccccc3)(c3ccccc3)OC2=O)c1 (configuration not stated) [4-Hydroxy-5,6-dihydropyrone deriv. 49]",10
16,"Cc1ccccc1SC1C(=O)CC(c2ccccc2)(c2ccccc2)OC1=O (configuration not stated) [4-hydroxy-3-[(2-methylphenyl)sulfanyl]-6,6-diphenyl-5,6-dihydro-2H-pyran-2-one]",388
17,"Cc1ccccc1SC1C(=O)CC(CCc2ccccc2)(c2ccccc2)OC1=O (configuration not stated) [4-hydroxy-3-[(2-methylphenyl)sulfanyl]-6-phenyl-6-(2-phenylethyl)-5,6-dihydro-2H-pyran-2-one]",73
18,"Cc1ccc(C(C)C)c(SC2C(=O)CC(c3ccccc3)(c3ccccc3)OC2=O)c1 (configuration not stated) [4-hydroxy-3-{[5-methyl-2-(propan-2-yl)phenyl]sulfanyl}-6,6-diphenyl-5,6-dihydro-2H-pyran-2-one]",38
19,"Cc1ccc(C(C)C)c(SC2C(=O)CC(CCc3ccccc3)(c3ccccc3)OC2=O)c1 (configuration not stated) [4-hydroxy-3-{[5-methyl-2-(propan-2-yl)phenyl]sulfanyl}-6-phenyl-6-(2-phenylethyl)-5,6-dihydro-2H-pyran-2-one]",7
20,"CC(C)c1ccccc1SC1C(=O)CC(c2ccccc2)(c2ccccc2)OC1=O (configuration not stated) [4-hydroxy-6,6-diphenyl-3-{[2-(propan-2-yl)phenyl]sulfanyl}-5,6-dihydro-2H-pyran-2-one]",23

# Same assay, conditions: pH 4.7; 37 °C
row,SMILES,IC50 [nM]
1,"O=C(O)CCC1(c2ccccc2)CC(=O)C(SCCc2ccccc2)C(=O)O1 (configuration not stated) [3-(3,6-Dihydro-4-hydroxy-6-oxo-2-phenyl-5-[(2-phenylethyl)thio]-2H-pyran-2-yl)propanoic Acid]",1200
2,"CC(C)CC1(c2ccccc2)CC(=O)C(SCc2ccccc2)C(=O)O1 (configuration not stated) [3-(benzylsulfanyl)-4-hydroxy-6-(2-methylpropyl)-6-phenyl-5,6-dihydro-2H-pyran-2-one]",440
3,"CC(C)CCC1(c2ccccc2)CC(=O)C(SCc2ccccc2)C(=O)O1 (configuration not stated) [3-(benzylsulfanyl)-4-hydroxy-6-(3-methylbutyl)-6-phenyl-5,6-dihydro-2H-pyran-2-one]",98
4,"CC(C)CCCC1(c2ccccc2)CC(=O)C(SCc2ccccc2)C(=O)O1 (configuration not stated) [3-(benzylsulfanyl)-4-hydroxy-6-(4-methylpentyl)-6-phenyl-5,6-dihydro-2H-pyran-2-one]",183
5,"CCCCCC1(c2ccccc2)CC(=O)C(SCc2ccccc2)C(=O)O1 (configuration not stated) [3-(benzylsulfanyl)-4-hydroxy-6-pentyl-6-phenyl-5,6-dihydro-2H-pyran-2-one]",124
6,"O=C1CC(CCc2ccccc2)(c2ccccc2)OC(=O)C1SCc1ccccc1 (configuration not stated) [3-(benzylsulfanyl)-4-hydroxy-6-phenyl-6-(2-phenylethyl)-5,6-dihydro-2H-pyran-2-one]",60
7,"CCCCC1(c2ccccc2)CC(=O)C(SCc2ccccc2)C(=O)O1 (configuration not stated) [3-(benzylsulfanyl)-6-butyl-4-hydroxy-6-phenyl-5,6-dihydro-2H-pyran-2-one]",270
8,"CCCCCCC1(c2ccccc2)CC(=O)C(SCc2ccccc2)C(=O)O1 (configuration not stated) [3-(benzylsulfanyl)-6-hexyl-4-hydroxy-6-phenyl-5,6-dihydro-2H-pyran-2-one]",180
9,"NC(=O)CCCC1(c2ccccc2)CC(=O)C(SCCc2ccccc2)C(=O)O1 (configuration not stated) [4-(3,6-Dihydro-4-hydroxy-6-oxo-2-phenyl-5-[(phenylethyl)thio]-2H-pyran-2-yl)butyramide]",1300
10,"CC(C)CCC1(c2ccccc2)CC(=O)C(SCCc2ccccc2)C(=O)O1 (configuration not stated) [4-hydroxy-6-(3-methylbutyl)-6-phenyl-3-[(2-phenylethyl)sulfanyl]-5,6-dihydro-2H-pyran-2-one]",96
11,"CC(C)CCCC1(c2ccccc2)CC(=O)C(SCCc2ccccc2)C(=O)O1 (configuration not stated) [4-hydroxy-6-(4-methylpentyl)-6-phenyl-3-[(2-phenylethyl)sulfanyl]-5,6-dihydro-2H-pyran-2-one]",155
12,"CCCCCC1(c2ccccc2)CC(=O)C(SCCc2ccccc2)C(=O)O1 (configuration not stated) [4-hydroxy-6-pentyl-6-phenyl-3-[(2-phenylethyl)sulfanyl]-5,6-dihydro-2H-pyran-2-one]",84
